From patent publication US20020155117A1, “METHOD FOR DETECTING ORGAN ALLOGRAFT REJECTION AND USES THEREOF” (priority 1996, published 2002)
Ends that are not written are not given here.

How the values were obtained:
Type in all cases: cell-based, human
[1] = system: T cells infiltrating the graft; experiment: Limiting dilution analysis of Th frequency among lymphocytes infiltrating the graft, Example 1; settings: patient three, + self PBMC
Excerpt: Biopsy tissue was washed twice with medium supplemented with 5 u/ml rIL-2. Cell growth was checked everyday. The medium was changed twice a week. T cells infiltrating the graft were further expanded in medium with rIL-2 for 7-14 days. When the cell number reached 1×10^6, they were harvested and plated at 400, 200 and 100 cells per well in the presence of autologous PBMC (5×10^4/per well) in 24 replicate cultures. Cultures were maintained and assayed for reactivity as described above. The precursor frequency of Th cells recognizing pp 22-35 and donor spleen cells was analyzed by Poisson statistics (Liu et al., 1992; and Zhang et al., 1994).

[2] = system: IL-2 expanded PBMCs of DR11 positive heart allograft recipients; experiment: Limiting dilution analysis (LDA) of Th frequency in the periphery, Example 1; settings: for T helper cell frequency, circulation: + self PBMC
Description: FIG. 6. Suppression of in vivo activated T cells by high doses of antigen. PBMCs obtained from patient […] on day 55 were expanded in IL-2 for 14 days and then tested in LDA (limiting dilution analysis) for reactivity to pp 22-35 at concentrations of […] in the presence of autologous APCs.
The LDA study of Th frequency in the periphery was performed using the method described by Zhang et al. (Zhang et al., 1994) with some modifications. PBMCs were plated at 2×10^4, 1×10^4 and 5×10^3 cells per well (24 wells for each concentration) in 0.1 ml medium containing 40 U/ml of rIL-2. On day 7, 0.1 ml fresh medium with rIL-2 was added to each well. After 14 days, each culture was split into 3 aliquots: one was cultured with autologous (patient) irradiated PBMC (5×10^4/well), the second with autologous PBMC plus pp 22-35, and the third with donor spleen cells (5×10^4/well). The cultures were pulsed with [^3H] thymidine ([…]) after 48 hours and harvested 18 hours later.
To establish whether the reactivity of in vivo activated T cells to peptide 22-35 can be suppressed by high concentrations of antigen the following experiment was performed: PBMC from […] were cultured for 14 days at different cell concentrations in medium with IL-2. Cultures were then tested in the presence of autologous APCs for reactivity to pp 22-35 at concentrations of 1 μM and 15 μM. At 1 μM of antigen there were 8×10^−6 reactive T cells while at 15 μM there was no reactivity (FIG. 6).

[3] = system: TCL LZ-anti-pp 21-42; experiment: Proliferation assay of TCL LZ-anti-pp 21-42; parameters: stimulation of TCL anti-pp 21-42 by overlapping 14-mer peptides: dose or concentration left out as unconfirmed
Description: (§1) FIGS. 1A and 1B. Reactivity of TCLs to the immunizing peptides and to r DR1 proteins. The TCL LZ-anti-pp 1-20 […] and TCL LZ-anti-pp 21-42 […] were tested for reactivity to various concentrations of rDR1 protein and pp 1-20 pr pp 21-42 using 2×10^4 responding cells and 5×10^4 irradiated autologous APCs per well. Cultures were labeled after 48 hours and harvested 18 hours later. Results are expressed as mean cpm of triplicate cultures. The standard deviation of measure was less than 10%.
(§2) FIGS. 2A and 2B. HLA-DR restriction of peptide recognition by TCLs. The TCL LZ-anti-pp 1-20 (FIG. 2A) and TCL LZ-anti-pp 21-42 (FIG. 2B) were stimulated with […] peptide (pp 1-20 for LZ-anti-pp 1-20 and pp 21-42 for LZ-anti-pp 21-42) in the presence of autologous and allogeneic APCs sharing with the responder one or no DR antigen. Assays were done as described in the description of FIGS. 1A and 1B.
FIG. 3. Determination of the core epitope of the dominant determinant of DR1 molecule. TCL LZ-anti-pp 21-42 was stimulated in individual cultures with nine overlapping 14-mer peptides ([…]) moving along residues 21-42 in single residue steps. The reactions were set up as described in the description of FIGS. 1A and 1B.
FIG. 4. Suppression of TCL reactivity by high concentrations of antigen. The proliferative response of TCL LZ-anti-pp 21-42 was tested as described in the description of FIGS. 1A and 1B using different concentrations of pp 22-35. The response was abolished at a concentration […].
(§3) T cells were grown in 24 well plates (Nunc, Inc., Naperville, Ill.) in RPM1 1640 medium supplemented with 10% human AB serum, […] L-glutamine, and 50 μg/ml gentamicin (Gibco, Grand Island, N.Y.). On day 10, rIL-2 was added at 5 μ/ml. Fourteen days after priming, T cells were collected, washed and restimulated at 10^6/ml with antigen, in culture medium containing rIL-2 (20 u/ml) and irradiated (3000 rad) autologous PBMCs (2×10^6/ml). Following three stimulations, two TCLs, named LZ-anti-pp1-20 and LZ-anti-pp21-42, were obtained.
(§4) Responding T cells (2×10^4/well) were cultured with irradiated APCs of responder or stimulator origin (5×10^4/well) in round bottom microtiter plates (Nunc Inc., Naperville, Ill.). Antigens were added to the cultures at the concentrations indicated. [^3H] thymidine (1 μCi/well) was added after 48 hours, and the cultures were harvested 18 hours later. [^3H] thymidine incorporation was measured in an LK Betaplate liquid scintillation counter (Wallace, Inc., Gaithersburg, Md.). Mean cpm in triplicate cultures and standard deviation of the mean were calculated.
The immune response of mature T cells can paradoxically be suppressed by high doses of antigen (Suzuki et al., 1988; and Critchfield et al, 1994). The possibility of suppressing indirect allorecognition was explored by testing the reactivity of TCL LZ-anti-pp 21-42 to increasing concentrations of pp 22-35 in the presence of autologous APC. The reactivity of the line started to decline when the concentration of the peptide was increased above 3 μM (FIG. 4).
(§5) T cells cultured with 27 μM of pp 22-35 lost viability (>90% Preputium iodide positive) within 72 hours, while T cells grown with high concentration of the irrelevant peptide alone were unaffected

[4] = system: TCL LZ-anti-pp 1-20; experiment: Proliferation assay of TCL LZ-anti-pp 1-20
Description: as §1
as §2, with “1B. […]” for “1B.”
as §4, with “Antigens were added to the cultures at the concentrations indicated. [^3H] thymidine (1 μCi/well) was added after 48 hours, and the cultures were harvested 18 hours later.” left out

[5] = system: PBMC from a responder (LZ), expressing HLA-DR β1*1101/1201; experiment: In vitro immunization of PBMC from responder LZ with DR1 peptides (blastogenesis with autologous APCs); settings: peptide 5 μg/ml
Description: Development of Allo-peptide Specific T Cell Lines for Epitope Mapping. PBMCs (at 10^6/ml) from a healthy person ([…]) with HLA-DRβ1*1101/1201 genotype were primed in individual cultures (Liu et al., 1992) with each or the following seven DR1 peptides(5 μg/ml) spanning the first domain of the Drβ1*0101 chain:
as §3
To monitor indirect recognition in allograft recipients, a determination was made as to whether T cell recognize one or more peptides resulting from the processing of an allogeneic MHC molecule by responder APCs. For this, in vitro PBMC were immunized from a responder (LZ), expressing HLA-DR β1*1101/1201, with seven partially overlapping peptides corresponding to the first domain of the Drβ1*0101 molecule. […] The resulting T cell lines were tested for their ability to recognize native rDR1 molecule at various protein concentrations.

[6] = system: TCL LZ-anti-pp 21-42 T cells; experiment: Viability of T cells cultured with high peptide concentration (Preputium iodide); settings: high concentration of the irrelevant peptide alone
Description: as §5

[7] = system: TCL-PR; experiment: Proliferative response of TCL-PR to DR4 peptide
Excerpt: The identification of the core epitope of the DR4/69-88 peptide has been accomplished. […] The peptide KRAAVDTYCRHNYG carries the expected anchor residues required by the peptide binding motif of the DTRβ1*1101 restriction molecule (i+7) as well as the TCR contact residues involved in the stimulation of TCL-PR.
The objective of these studies is to establish whether high doses of dominant peptide are tolerogenic. To increase resistance against enzymatic degradation D-Lysine is placed at the N-terminus and the C-terminus is amidated. We have established that the optimal dose of the dominant peptide (4/71-84) required for inducing maximal proliferation of TCR-PR is 5 μg/ml or approximately 5×10^−7M. Increasing concentration of peptide 4/71-84 (ranging from 10^−8 to 10^−4M) may be used to determine the dose required to reduce proliferation to the background values observed in cultures with APCs and no peptide. The viability of the cells will be assayed and physiological studies will be performed to determine whether the lack of proliferation results from the induction of enery of apoptosis.

## ERVRLLERCIYNQE [pp 22-35, ERVRLLERCIYNQE]
[1]; 55 d biopsy
  T helper cell frequency, graft: 4.3×10^−4
[1]; 55 d biopsy, listed as pp22-35
  T helper cell frequency, graft: 4.3 × 10^−4
[1]; 82 d biopsy
  T helper cell frequency, graft: 3.3×10^−4
[1]; 82 d biopsy, listed as pp22-35
  T helper cell frequency, graft: 3.3 × 10^−4
[2]; patient PBMC (day 55), 1 μM of antigen, autologous APCs, FIG. 6
  reactive T cells in LDA at low antigen concentration: 8×10^−6
[2]; patient PBMC (day 55), 15 μM of antigen, autologous APCs, FIG. 6
  reactive T cells in LDA at high antigen concentration: no reactivity
[2]; patient one, 1 Mo after transplantation
  T helper cell frequency, circulation: 0
[2]; patient one, 12 Mo after transplantation (chronic rejection)
  T helper cell frequency, circulation: 6×10^−6
[2]; patient one, 12 Mo after transplantation (chronic rejection), listed as pp22-35
  T helper cell frequency, circulation: 6.0 × 10^−6
[2]; patient three, 27 d after transplantation
  T helper cell frequency, circulation: 0
[2]; patient three, 41 d after transplantation
  T helper cell frequency, circulation: 7.4×10^−6
[2]; patient three, 41 d after transplantation, listed as pp22-35
  T helper cell frequency, circulation: 7.4 × 10^−6
[2]; patient three, 55 d after transplantation (acute rejection), listed as pp22-35
  T helper cell frequency, circulation: 8.0 × 10^−6
[2]; patient three, 55 d after transplantation (acute rejection), listed as pp-22-35
  T helper cell frequency, circulation: 8×10^−6
[2]; patient three, 82 d after transplantation (acute rejection), listed as pp22-35
  T helper cell frequency, circulation: 6.5 × 10^−6
[2]; patient three, 82 d after transplantation (acute rejection), listed as pp-22-35
  T helper cell frequency, circulation: 6.5e-06
[2]; patient two, 12 Mo after transplantation
  T helper cell frequency, circulation: failed to react
[2]; patient two, 12 Mo after transplantation, listed as pp22-35
  T helper cell frequency, circulation: 0
[3]; FIG. 4 legend
  peptide concentration at which the proliferative response was abolished: 27 µM
[3]; autologous APC, FIG. 4
  peptide concentration above which reactivity of the line started to decline: above 3 μM
  peptide concentration for complete suppression of TCL reactivity: 27 µM
[3]; autologous APCs, FIG. 3
  stimulation of TCL anti-pp 21-42 by overlapping 14-mer peptides: stimulated strongly
[3]; pp 22-35
  TCL-ZL response to pp 22-35: 17×10^3 cpm

## GDTRPRFLWQLKFECHFFNG (GDTRPRFLWQLKFECHFFNG) [pp 1-20, residues 1-20 of Drβ1*0101 chain]
[4]; autologous APCs, various concentrations, FIG. 1
  reactivity of TCL LZ-anti-pp 1-20: stimulated strongly
[4]; autologous and allogeneic APCs, FIG. 2A
  HLA-DR restriction of peptide recognition by TCL anti-pp 1-20: only when presented by APCs carrying the Drβ1*1101 allele
[5]
  blastogenesis after in vitro immunization of PBMC: elicited blastogenesis

## K G N N D E S N I S F K E K D (KGNNDESNISFKEKD) [NDA4-derived peptide, irrelevant synthetic peptide corresponding to the N-terminus of the NDA4 molecule, reference compound]
[6]
  viability of T cells grown with peptide alone: unaffected
[3]; pp 22-35 at plus NDA4-derived peptide at 30-50 μM
  TCL-ZL response to pp 22-35 in the presence of irrelevant peptide: 15-17×10^3 cpm

## K R A A V D T Y C R H N Y G (KRAAVDTYCRHNYG) [4/71-84]
[7]
  optimal dose required for inducing maximal proliferation of TCR-PR: 5 μg/ml and approximately 5×10^−7 M
  potency in stimulating the proliferative response of TCL-PR (core epitope of DR4/69-88): most potent

## TERVRLLERCIYNQEESVREDS (TERVRLLERCIYNQEESVREDS) [pp 21-42, residues 21-42 of Drβ1*0101 chain]
[5]
  blastogenesis after in vitro immunization of PBMC: elicited blastogenesis
[3]; autologous APCs, various concentrations, FIG. 1B
  reactivity of TCL LZ-anti-pp 21-42: reacted vigorously
[3]; autologous and allogeneic APCs, FIG. 2B
  HLA-DR restriction of peptide recognition by TCL anti-pp 21-42: only when presented by APCs carrying the Drβ1*1101 allele
